{"source": "patent US20240115541A1", "about": "“METHOD FOR TREATING CEREBRAL APOPLEXY AND HYPERBILIRUBINEMIA BY COMPOUND FOR INHIBITING COMBINATION OF BILIRUBIN AND TRPM2 CHANNEL” (SHANGHAI SIXTH PEOPLE'S HOSPITAL, priority 2022, published 2024)", "key": {"[1]": {"tested_on": "cortical neurons in adult Trpm2+/+ brain slices", "conditions": "mouse, 1 h", "protocol": "In this assay, surviving and dead cortical neurons were labeled with calcein-am and propidium-iodide (PI), respectively (FIG. 4K), the specific process was as follows:\nTrpm2^+/+ mice aged 4-8 weeks were anesthetized by intraperitoneal injection of 1% pentobarbital (55 mg/kg). The brain tissue of the mice was then acutely isolated, and brain slices with a thickness of 150 μm were obtained using a vibratome.\nThe brain slices were incubated with bilirubin (Bil) and bilirubin+A23 (Bil+A23) for 1 hour at 37° C., adding calcein-am (1 μM) and PI (2 μM) for the last 15 minutes, and then washed for three times before being fixed.\nWhen the staining was completed, the cells were fixed with 4% paraformaldehyde in a dark container for 40 minutes, and finally confocal imaging was performed. Cell counts were performed using the software of Image-J to calculate the death rate."}, "[2]": {"molecular_target": "T1, K928A/D1069A double mutant TRPM2 channel (Homo sapiens, UniProt O94759, D1069A/K928A)", "T1 construct": "expressed in transfected cells; host or cells: HEK293T cells, Lipofectamine 3000, GFP cDNA co-transfected as a separate marker", "T1 sequence (O94759 whole entry K928A/D1069A)": "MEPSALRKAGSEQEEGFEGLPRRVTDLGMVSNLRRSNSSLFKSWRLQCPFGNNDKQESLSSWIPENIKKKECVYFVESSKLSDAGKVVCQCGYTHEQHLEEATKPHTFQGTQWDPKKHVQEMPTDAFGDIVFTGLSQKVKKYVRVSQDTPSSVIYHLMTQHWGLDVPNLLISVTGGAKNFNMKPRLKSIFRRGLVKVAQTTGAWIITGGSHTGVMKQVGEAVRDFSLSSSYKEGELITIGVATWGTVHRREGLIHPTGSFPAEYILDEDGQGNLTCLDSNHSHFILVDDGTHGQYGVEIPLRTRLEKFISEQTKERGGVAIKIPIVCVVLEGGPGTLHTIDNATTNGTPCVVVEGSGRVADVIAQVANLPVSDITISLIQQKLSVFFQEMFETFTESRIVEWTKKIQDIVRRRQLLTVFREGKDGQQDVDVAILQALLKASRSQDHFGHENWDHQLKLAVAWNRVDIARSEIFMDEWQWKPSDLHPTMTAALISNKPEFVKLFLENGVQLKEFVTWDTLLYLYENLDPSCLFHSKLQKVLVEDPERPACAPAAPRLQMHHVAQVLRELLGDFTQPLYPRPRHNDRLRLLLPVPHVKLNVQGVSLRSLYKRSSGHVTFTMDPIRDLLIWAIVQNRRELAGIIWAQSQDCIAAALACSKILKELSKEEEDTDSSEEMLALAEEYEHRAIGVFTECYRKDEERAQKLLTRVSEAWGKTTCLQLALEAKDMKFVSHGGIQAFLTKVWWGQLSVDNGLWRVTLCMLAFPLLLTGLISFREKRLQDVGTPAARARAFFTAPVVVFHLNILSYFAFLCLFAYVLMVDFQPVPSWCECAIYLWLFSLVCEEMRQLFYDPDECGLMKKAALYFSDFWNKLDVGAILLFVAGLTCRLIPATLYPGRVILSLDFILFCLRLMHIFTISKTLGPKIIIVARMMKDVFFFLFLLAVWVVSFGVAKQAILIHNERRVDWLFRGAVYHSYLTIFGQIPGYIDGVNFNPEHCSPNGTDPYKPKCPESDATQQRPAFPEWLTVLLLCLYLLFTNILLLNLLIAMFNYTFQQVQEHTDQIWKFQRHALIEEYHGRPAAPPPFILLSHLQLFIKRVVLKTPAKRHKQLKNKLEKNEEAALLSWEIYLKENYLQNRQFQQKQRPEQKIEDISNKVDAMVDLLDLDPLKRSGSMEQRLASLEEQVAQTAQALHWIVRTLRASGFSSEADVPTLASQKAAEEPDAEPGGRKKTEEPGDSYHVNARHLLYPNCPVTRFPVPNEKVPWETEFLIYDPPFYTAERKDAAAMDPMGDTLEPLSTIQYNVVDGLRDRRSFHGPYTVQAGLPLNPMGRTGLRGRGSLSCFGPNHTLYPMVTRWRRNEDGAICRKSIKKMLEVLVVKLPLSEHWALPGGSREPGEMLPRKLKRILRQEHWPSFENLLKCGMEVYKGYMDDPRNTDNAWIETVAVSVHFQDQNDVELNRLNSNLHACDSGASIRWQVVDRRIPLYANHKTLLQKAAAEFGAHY", "test": "Whole-cell patch-clamp recording, K928A/D1069A double mutant in HEK293T cells", "format": "cell-based", "conditions": "intracellular ADPR 500 μM", "method": "(§1) 3. Cell culture and transfection: Human embryonic kidney 293 (HEK293) cells with tetracycline-inducible expression of human TRPM2 channel (hTRPM2) were cultured in a mixed medium containing DMEM/F-12 and 10% fetal bovine serum as well as blasticidin (50 μg/ml) and zeocin (0.4 mg/ml). The expression of hTRPM2 was induced by substituting […] (1 μg/ml) 24-48 hours before use. TRPM2 channel mutants were transiently expressed in HEK293T cells by transfection with using Lipofectamine 3000. Briefly, HEK293T cells were transiently transfected with cDNAs encoding the mutant hTRPM2 channel. The cDNA for GFP was co-transfected as a marker for identification of the transfected cells for electrophysiological experiments 16-24 hours after transfection. […]\n4. Whole-cell and ingle-channel patch-clamp recording: the coverslips were placed in a culture dish (35×35 mm, Sorfa) containing HEPES based extracellular solution (ECS) and recorded by patch-clamp technique. […] Each coverslip was recorded only once with different drug exposures. […] The excised patches were voltage-clamped from −80 mV to +80 mV (in 20 mV increasement) to generate the current-voltage (I-V) relationship of single channel currents from which their main conductance was calculated from the slope by linear regression of the mean current amplitude at different potentials. […]"}, "[3]": {"molecular_target": "T2, human TRPM2 channel (hTRPM2) (Homo sapiens, UniProt O94759)", "T2 construct": "expressed in transfected cells; host or cells: HEK293 cells with tetracycline-inducible expression", "test": "Single-channel (outside-out) patch-clamp recording, HEK-hTRPM2 cells", "format": "cell-based", "conditions": "FFA applied after bilirubin", "method": "1. Extracellular solution (in mM): 145 NaCl, 5.6 KCl, 2 MgCl2, 1.2 CaCl2, 10 HEPES, 10 glucose and pH adjusted to 7.4 by NaOH (290-320 mOsm).\n2. Pipette solution contains (in mM): 147 NaCl, 1 MgCl2, 1 EGTA and 10 HEPES with pH 7.4 and osmolality 290-320 mOsm.\nas §1, with “3000.” for “3000. Briefly, HEK293T cells were transiently transfected with cDNAs encoding the mutant hTRPM2 channel. The cDNA for GFP was co-transfected as a marker for identification of the transfected cells for electrophysiological experiments 16-24 hours after transfection.”\n4. Whole-cell and ingle-channel patch-clamp recording: the coverslips were placed in a culture dish (35×35 mm, Sorfa) containing HEPES based extracellular solution (ECS) and recorded by patch-clamp technique. […] Each coverslip was recorded only once with different drug exposures. […] The excised patches were voltage-clamped from −80 mV to +80 mV (in 20 mV increasement) to generate the current-voltage (I-V) relationship of single channel currents from which their main conductance was calculated from the slope by linear regression of the mean current amplitude at different potentials."}}, "data": [{"compound": "C=CC1=C(C)/C(=C/c2[nH]c(Cc3[nH]c(/C=C4\\NC(=O)C(C)=C4C=C)c(C)c3CCC(=O)O)c(CCC(=O)O)c2C)NC1=O", "note": "[bilirubin]", "values": [{"measurement": "mortality of cortical neurons", "setting": "[1]", "value": "60.84±2.13", "unit": "%"}]}, {"compound": "Nc1ncnc2c1ncn2[C@@H]1O[C@H](COP(=O)(O)OP(=O)(O)OC[C@H]2OC(O)[C@H](O)[C@@H]2O)[C@@H](O)[C@H]1O", "note": "(stereo partly drawn) [ADPR, ADP-ribose]", "values": [{"measurement": "activation of K928A/D1069A double mutant currents", "setting": "[2]", "value": "perfectly retained the agonist capacity"}]}, {"compound": "O=C(O)c1ccccc1Nc1cccc(C(F)(F)F)c1", "note": "[FFA, flufenamic acid]", "values": [{"measurement": "effect on bilirubin-increased opening probability (Po)", "setting": "[3]", "value": "reversed"}]}]}
